Experimental data from patent publication US20240246933A1, “CRYSTALLINE FORM OF TRICYCLIC DERIVATIVE COMPOUND, METHOD FOR PREPARING SAME, AND PHARMACEUTICAL COMPOSITION COMPRISING SAME” (ONCONIC THERAPEUTICS INC., priority 2021, published 2024).
Counter-ions that a name gives are not always drawn. Like-named read-outs stand apart in the source and are kept apart here.

Experiments:
[1] = biological target: T1, tankyrase-2 enzyme (Homo sapiens, UniProt Q9H2K2); test: Inhibition test of tankyrase-2 enzyme (BPS Bioscience kit); type: biochemical; details: tankyrase-2 enzyme 15 ng/well, 25° C. for 1 hour; read-out: IC50 (tankyrase-2 enzyme inhibitory activity)
T1 construct: purchased BPS Bioscience 80578
T1 sequence (Q9H2K2 849-1166): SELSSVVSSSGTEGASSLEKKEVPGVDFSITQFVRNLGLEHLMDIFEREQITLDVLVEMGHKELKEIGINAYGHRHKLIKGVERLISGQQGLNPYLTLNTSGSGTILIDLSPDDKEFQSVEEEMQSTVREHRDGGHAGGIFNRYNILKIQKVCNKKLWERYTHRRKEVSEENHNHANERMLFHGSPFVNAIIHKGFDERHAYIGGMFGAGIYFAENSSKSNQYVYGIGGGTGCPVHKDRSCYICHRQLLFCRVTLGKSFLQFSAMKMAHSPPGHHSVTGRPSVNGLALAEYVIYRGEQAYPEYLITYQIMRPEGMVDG
Procedure: (§1) Histones were coated on a 96-well plate provided from BPS Bioscience's kit and left at 4 °C for 16 hours. […] After 1 hour, each well was washed 4 times with PBST, and streptavidin-linked peroxidase (Strep-HRP, 1:50 dilution) was added thereto to measure the amount of ribosylation by PARP enzyme, and reacted at 25° C. for 30 minutes. The plate was washed 4 times with PBST, and then HRP chemiluminescent substrate was finally added thereto and reacted. The amount of histone ribosylation formed by each enzyme was quantified using a Synergy™ H4 Hybrid Multi-Mode Microplate Reader (BioTek Instruments, Inc., US (A)).

[2] = Measurement of solubility in water (shake-flask, UPLC); type: physicochemical; details: for Water solubility: shake-flask shaken for 24 hours, UPLC
Procedure: Compounds are dissolved in DMSO and measured by UPLC, and then a calibration curve is drawn. The compounds saturated by the Shake-flask method are filtered and then measured by UPLC, and it is substituted into a calibration curve to calculate the concentration.

[3] = Stability of the addition salt of Compound 1 (temperature, humidity, light; purity by HPLC); type: physicochemical; details: for Stability in the temperature and humidity (in words): temperature and humidity conditions of Table 5
Procedure: The stability of crystals of the addition salt of Compound 1 prepared in the Examples and Comparative Examples above was confirmed, and the results are shown in Table 5 below.
Experiments according to temperature, humidity and light conditions were carried out by a method of confirming purity by HPLC after storage in a stability chamber under each condition.
Each sample was spread thinly in a Petri dish, and then the stability was evaluated after irradiation with UV light having a light intensity of 35 W to a total irradiation amount of 200 watts under conditions of 25° C. and 60% humidity using a photostability test chamber (CARON 6542-2).
Each sample was spread thinly in a Petri dish, and then the stability was evaluated after irradiation with visible light having a light intensity of 35 k Lux to a total irradiation amount of 1200 k lux under conditions of 25° C. and 60% humidity using a photostability test chamber (CARON 6542-2).

[4] = biological target: PARP-1 enzyme (Homo sapiens, UniProt P09874); test: Inhibition test of poly (ADP-ribose) polymerase [PARP-1] enzyme (BPS Bioscience kit)
Sequence of PARP-1 enzyme (P09874 whole entry): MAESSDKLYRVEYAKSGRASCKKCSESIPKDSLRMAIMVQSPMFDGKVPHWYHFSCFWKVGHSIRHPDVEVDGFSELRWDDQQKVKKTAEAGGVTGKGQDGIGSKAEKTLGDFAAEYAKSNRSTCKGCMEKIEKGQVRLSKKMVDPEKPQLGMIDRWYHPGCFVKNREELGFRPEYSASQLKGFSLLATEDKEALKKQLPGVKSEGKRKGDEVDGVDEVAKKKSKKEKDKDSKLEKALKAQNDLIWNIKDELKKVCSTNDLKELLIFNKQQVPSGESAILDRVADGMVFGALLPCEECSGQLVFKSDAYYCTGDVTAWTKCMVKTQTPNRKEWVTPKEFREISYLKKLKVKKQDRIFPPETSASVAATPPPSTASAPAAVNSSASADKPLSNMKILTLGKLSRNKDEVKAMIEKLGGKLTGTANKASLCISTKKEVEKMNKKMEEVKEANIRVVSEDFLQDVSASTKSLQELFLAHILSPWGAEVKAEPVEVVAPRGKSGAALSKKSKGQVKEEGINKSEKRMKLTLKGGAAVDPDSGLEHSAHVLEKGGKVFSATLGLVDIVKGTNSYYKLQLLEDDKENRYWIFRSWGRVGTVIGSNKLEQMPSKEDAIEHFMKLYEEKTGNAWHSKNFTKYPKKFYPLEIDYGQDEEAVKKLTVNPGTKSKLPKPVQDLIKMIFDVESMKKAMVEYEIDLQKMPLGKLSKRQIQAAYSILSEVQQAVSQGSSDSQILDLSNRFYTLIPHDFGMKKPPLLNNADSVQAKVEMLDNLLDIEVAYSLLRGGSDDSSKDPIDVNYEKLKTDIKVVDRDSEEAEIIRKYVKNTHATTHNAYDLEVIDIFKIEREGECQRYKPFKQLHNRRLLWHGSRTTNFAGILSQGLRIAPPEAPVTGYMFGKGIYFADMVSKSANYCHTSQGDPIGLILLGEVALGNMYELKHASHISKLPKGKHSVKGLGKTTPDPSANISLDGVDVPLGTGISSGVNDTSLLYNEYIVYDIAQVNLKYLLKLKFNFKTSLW
Procedure: Histones were coated on a 96-well plate provided from BPS Bioscience's kit and left at 4° C. for 16 hours. […] After 1 hour, each well was washed 4 times with PBST, and streptavidin-linked peroxidase (Strep-HRP, 1:50 dilution) was added thereto to measure the amount of ribosylation by PARP enzyme, and reacted at 25° C. for 30 minutes. The plate was washed 4 times with PBST, and then HRP chemiluminescent substrate was finally added thereto and reacted. The amount of histone ribosylation formed by each enzyme was quantified using a Synergy™ H4 Hybrid Multi-Mode Microplate Reader (BioTek Instruments, Inc., US (A)).

[5] = Measurement of solubility in various solvents; type: physicochemical; details: 0.1 g of sample, 15 to 25° C., within 30 minutes
Procedure: Specifically, 0.1 g of sample was accurately weighed, put into each solvent, and shaken and mixed vigorously for 30 seconds every 5 minutes at 15 to 25° C., and the amount dissolved within 30 minutes was measured.

[6] = Purity and stability under accelerated and long-term storage conditions (HPLC); type: physicochemical; details: for Purity under long-term storage conditions (area %) / Long-term storage conditions (related substances) (area %): 25±2° C., humidity 60±5%; for Purity under accelerated storage conditions (area %) / Accelerated storage conditions (related substances) (area %): 40±2° C., humidity 75±5%
Procedure: The purity and stability of the crystalline anhydride of the citrate prepared in Example 2 and the crystalline monohydrate of the citrate prepared in Example 3 according to the present invention were evaluated, and the results are shown in Tables 8 and 9 below.
In the tables below, stability tests were conducted under accelerated storage conditions of a temperature of 40±2° C. and humidity of 75±5%, and purity and stability tests were conducted under long-term storage conditions of a temperature of 25±2° C. and humidity of 60±5%. Experimental results were measured under the same conditions as in Experimental Example 1 using HPLC (product name: agilent 1290, manufacturer: Agilent).

[7] = biological target: tankyrase-1 enzyme (Homo sapiens, UniProt O95271); test: biochemical
Sequence of tankyrase-1 enzyme (O95271 1001-1327): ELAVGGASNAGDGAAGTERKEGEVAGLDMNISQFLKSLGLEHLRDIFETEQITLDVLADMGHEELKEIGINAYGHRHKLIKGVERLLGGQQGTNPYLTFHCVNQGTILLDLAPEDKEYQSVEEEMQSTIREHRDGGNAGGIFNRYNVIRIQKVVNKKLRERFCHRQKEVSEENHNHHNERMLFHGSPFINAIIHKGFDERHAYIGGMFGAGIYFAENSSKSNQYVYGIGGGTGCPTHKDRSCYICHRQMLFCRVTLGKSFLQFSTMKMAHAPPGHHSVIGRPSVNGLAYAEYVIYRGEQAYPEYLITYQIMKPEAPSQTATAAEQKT
Procedure: as §1

[8] = Temperature of 40° C., humidity of 70%, 3 days
[9] = UV 200 watt, 25° C. and 60% humidity
[10] = Visible 1200k lux, 25° C. and 60% humidity
[11] = 3 months, listed as Crystalline anhydride of citrate in Example 2
[12] = 6 months, listed as Crystalline anhydride of citrate in Example 2
[13] = initial, listed as Crystalline anhydride of citrate in Example 2
[14] = 3 months, listed as Crystalline monohydrate of citrate in Example 3
[15] = 6 months, listed as Crystalline monohydrate of citrate in Example 3
[16] = initial, listed as Crystalline monohydrate of citrate in Example 3

Structure (SMILES): Cl.Cl.N#Cc1ccc(N2CCN(Cc3ccc4c5c(c(=O)[nH]c4c3)CCCN5)CC2)nc1 [Comparative Example 2, Dichloride Salt of 6-{4-[(5-oxo-1,2,3,4,5,6-hexahydrobenzo[h][1,6]naphthyridin-8-yl)methyl]piperazine-1-yl}nicotinonitrile]
- IC50 [1]: 1.12 nM
- Water solubility [2]: 392 µM
- Purity (%) ([3]; Humidity of 75%, 3 days): 97.76%
- Purity (%) ([3]; Initial value): 97.89%
- Purity (%) [3, 8]: 97.83%
- Purity (%) ([3]; Temperature of 50° C., 3 days): 97.79%
- Purity (%) ([3]; UV 200 watt - dark): 97.89%
- Photostability (in words) ([3]; UV200 watt and Visible1200 k lux): remarkably poor photostability
- Purity (%) [3, 9]: 86.89%
- Purity (%) ([3]; Visible 1200k lux - dark): 97.89%
- Purity (%) [3, 10]: 93.40%
- Stability in the temperature and humidity (in words) [3]: stable
- IC50 ([4]; read-out: IC50 (PARP-1 enzyme inhibitory activity), PARP-1 enzyme 50 ng/well, 25° C. for 1 hour): 3.03 nM

Structure (SMILES): N#Cc1ccc(N2CCN(Cc3ccc4c5c(c(=O)[nH]c4c3)CCCN5)CC2)nc1 [Compound 1, 6-{4-[(5-oxo-1,2,3,4,5,6-hexahydrobenzo[h][1,6]naphthyridin-8-yl)methyl]piperazin-1-yl}nicotinonitrile]
- Solubility (0.1 g/mL) ([5]; Aqueous HCl solution (pH 1.1), listed as Free form): 350 mL
- Solubility (0.1 g/mL) ([5]; DMF, listed as Free form): 8 mL
- Solubility (0.1 g/mL) ([5]; EtOH, listed as Free form): ≥ 1000 mL
- Solubility (0.1 g/mL) ([5]; MeOH, listed as Free form): 300 mL
- Solubility (0.1 g/mL) ([5]; Water, listed as Free form): ≥ 1200 mL
- Water solubility ([2]; listed as Crystal (free form) of the compound of Formula 1 in Comparative Example 1-1): 1 µM

Structure (SMILES): N#Cc1ccc(N2CCN(Cc3ccc4c5c(c(=O)[nH]c4c3)CCCN5)CC2)nc1 [Example 2, Citrate Anhydride of 6-{4-[(5-oxo-1,2,3,4,5,6-hexahydrobenzo[h][1,6]naphthyridin-8-yl)methyl]piperazine-1-yl}nicotinonitrile]
- Purity under long-term storage conditions (area %) ([6]; 1 month): 99.64%
- Purity under long-term storage conditions (area %) ([6]; 3 months): 99.66%
- Long-term storage conditions (related substances) (area %) [6, 11]: 0.28%
- Purity under long-term storage conditions (area %) ([6]; 6 months): 99.58%
- Long-term storage conditions (related substances) (area %) [6, 12]: 0.29%
- Long-term storage conditions (related substances) (area %) ([6]; 9 months): 0.31%
- Purity under long-term storage conditions (area %) ([6]; 9 months): 99.67%
- Long-term storage conditions (related substances) (area %) ([6]; 12 months): 0.29%
- Purity under long-term storage conditions (area %) ([6]; 12 months): 99.72%
- Long-term storage conditions (related substances) (area %) ([6]; 18 months): 0.33%
- Purity under long-term storage conditions (area %) ([6]; 18 months): 99.73%
- Long-term storage conditions (related substances) (area %) ([6]; 24 months): 0.34%
- Purity under long-term storage conditions (area %) ([6]; 24 months): 99.74%
- Long-term storage conditions (related substances) (area %) ([6]; 30 months): 0.34%
- Long-term storage conditions (related substances) (area %) ([6]; 36 months): 0.30%
- Purity under long-term storage conditions (area %) ([6]; 36 months): 99.73%
- Purity under long-term storage conditions (area %) ([6]; initial): 99.66%
- Long-term storage conditions (related substances) (area %) [6, 13]: 0.26%
- Purity under accelerated storage conditions (area %) ([6]; 1 month): 99.64%
- Purity under accelerated storage conditions (area %) ([6]; 3 months): 99.65%
- Accelerated storage conditions (related substances) (area %) [6, 11]: 0.24%
- Purity under accelerated storage conditions (area %) ([6]; 6 months): 99.54%
- Accelerated storage conditions (related substances) (area %) [6, 12]: 0.28%
- Purity under accelerated storage conditions (area %) ([6]; initial): 99.66%
- Accelerated storage conditions (related substances) (area %) [6, 13]: 0.26%
- Solubility (0.1 g/mL) ([5]; Aqueous HCl solution (pH 1.1), listed as Crystalline anhydride of citrate in Example 2): ≤ 100 mL
- Solubility (0.1 g/mL) ([5]; DMF, listed as Crystalline anhydride of citrate in Example 2): 8 mL
- Solubility (0.1 g/mL) ([5]; EtOH, listed as Crystalline anhydride of citrate in Example 2): ≥ 1000 mL
- Solubility (0.1 g/mL) ([5]; MeOH, listed as Crystalline anhydride of citrate in Example 2): ≥ 100 mL
- Solubility (0.1 g/mL) ([5]; Water, listed as Crystalline anhydride of citrate in Example 2): ≤ 1000 mL
- IC50 [1]: 1.06 nM
- Solubility in water (in words) ([2]; compared to other salts): remarkably excellent solubility in water
- Water solubility ([2]; listed as Crystalline anhydride of citrate of Compound 1): 1067 µM
- Purity (%) ([3]; Humidity of 75%, 3 days): 97.81%
- Purity (%) ([3]; Initial value): 97.97%
- Purity (%) [3, 8]: 97.79%
- Purity (%) ([3]; Temperature of 50° C., 3 days): 97.86%
- Purity (%) ([3]; UV 200 watt - dark): 98.38%
- Purity (%) [3, 9]: 96.94%
- Purity (%) ([3]; Visible 1200k lux - dark): 98.39%
- Purity (%) [3, 10]: 96.73%
- Stability in the temperature and humidity (in words) [3]: stable
- IC50 [4]: 2.62 nM
- IC50 [7]: 4.31 nM

Structure (SMILES): N#Cc1ccc(N2CCN(Cc3ccc4c5c(c(=O)[nH]c4c3)CCCN5)CC2)nc1 [Example 3, Citrate Monohydrate of 6-{4-[(5-oxo-1,2,3,4,5,6-hexahydrobenzo[h][1,6]naphthyridin-8-yl)methyl]piperazine-1-yl}nicotinonitrile]
- Long-term storage conditions (related substances) (area %) [6, 14]: 0.29%
- Long-term storage conditions (related substances) (area %) [6, 15]: 0.32%
- Long-term storage conditions (related substances) (area %) [6, 16]: 0.38%
- Accelerated storage conditions (related substances) (area %) [6, 14]: 0.34%
- Accelerated storage conditions (related substances) (area %) [6, 15]: 0.32%
- Accelerated storage conditions (related substances) (area %) [6, 16]: 0.38%
- Solubility (0.1 g/mL) ([5]; Aqueous HCl solution (pH 1.1), listed as Crystalline monohydrate of citrate in Example 3): 50 mL
- Solubility (0.1 g/mL) ([5]; DMF, listed as Crystalline monohydrate of citrate in Example 3): 2.9 mL
- Solubility (0.1 g/mL) ([5]; EtOH, listed as Crystalline monohydrate of citrate in Example 3): 350 mL
- Solubility (0.1 g/mL) ([5]; MeOH, listed as Crystalline monohydrate of citrate in Example 3): 9 mL
- Solubility (0.1 g/mL) ([5]; Water, listed as Crystalline monohydrate of citrate in Example 3): 400 mL

Structure (SMILES): N#Cc1ccc(N2CCN(Cc3ccc4c5c(c(=O)[nH]c4c3)CCCN5)CC2)nc1 [Example 4, Citrate Dihydrate of 6-{4-[(5-oxo-1,2,3,4,5,6-hexahydrobenzo[h][1,6]naphthyridin-8-yl)methyl]piperazine-1-yl}nicotinonitrile]
- Solubility (0.1 g/mL) ([5]; Aqueous HCl solution (pH 1.1), listed as Crystalline dihydrate of citrate in Example 4): 55 mL
- Solubility (0.1 g/mL) ([5]; DMF, listed as Crystalline dihydrate of citrate in Example 4): 2.5 mL
- Solubility (0.1 g/mL) ([5]; EtOH, listed as Crystalline dihydrate of citrate in Example 4): 450 mL
- Solubility (0.1 g/mL) ([5]; MeOH, listed as Crystalline dihydrate of citrate in Example 4): 9 mL
- Solubility (0.1 g/mL) ([5]; Water, listed as Crystalline dihydrate of citrate in Example 4): ≥ 400 mL
